This is an account of results in US5965539A, “Inhibitors of prenyl transferases” (Univeristy of Pittsburgh, priority 1996, dated 1999).

Where two headings read alike, the source gives them in different places.

In one experiment the test system is Raf-1 kinase. The settings on record: H-RasF cells.
The test system of experiment [1] is Raf-transformed NIH 3T3 cells. The settings on record: 50 mg/kg once daily.
The target in another experiment is T1, GGTase I (Homo sapiens, UniProt P53609).
T1 construct: FTase and GGTase I activities from 60,000×g supernatants of human Burkitt lymphoma (Daudi) cells; endogenous in cells; host or cells: human Burkitt lymphoma (Daudi) cells, 60,000xg supernatant (partially purified)
The experiment is described as follows: GGTase I activity assay: transfer of [3H]geranylgeranyl to recombinant H-Ras-CVLL, Daudi 60,000xg supernatant. Format: biochemical. The settings on record: Table 1; read-out: GGTase I IC50.

A further experiment relates to Rap1A processing. In words: Rap1A processing assay in NIH 3T3 cells overexpressing oncogenic H-Ras, immunoblot. Format: cell-based. The settings on record: for IC50: whole cells. The procedure:
(§1) H-RasF cells (45) were seeded on day 0 in 100 mm Dishes (costar) in Dulbecco's modified Eagles medium (GIBCO) and allowed to grow to 40-60% confluency. […] On day 3, cells were washed one time with ice cold PBS and were collected and lysed by incubation for 30-60 min on ice in lysis buffer (41). Lysates were cleared (14,000 rpm, 4° C., 15 min) and supernatants collected. Equal amounts of lysate were separated on a 12.5% SDS-PAGE, transfered to nitrocellulose, and a western blot performed using a anti-Ras antibody (Y13-238, ATCC) or anti-Rap1A antibody (Santa Cruz Biotechnology, Santa Cruz, Calif.). Antibody reactions were visualized using peroxidase-conjugated goat anti-rat IgG for Y13-238 and peroxidase-conjugated goat anti-rabbit IgG for Rap1A and an enhanced chemiluminescence detection system (ECL; Amersham Corp.)
(§2) H-Ras cells (45) and K-Ras4B Cells (32) were kind gifts from Dr. Channing Der and Dr. Adrienne Cox (University of North Carolina, Chapel Hill). Means of obtaining these cell lines will be easily recognized by the skilled practitioner. Cells were seeded on day 0 in 100 mm dishes in Dulbecco's modified Eagles medium supplemented with 10% calf serum and 1% penicillin-streptomycin. […] On day 3, cells were washed and lysed in lysis buffer containing 50 mM HEPES, pH 7.5, 10 mM NaCl, 1% TX-100, 10% glycerol, 5 mM MgCl2, 1 mM EGTA, 25 μg/ml leupeptin, 2 mM PMSF, 2 mM Na3 VO4, 1 mg/ml soybean trypsin inhibitor, 10 μg/ml aprotinin, 6.4 mg/ml Sigma-104® phosphatase substrate. Lysates were cleared (14,000 rpm, 4° C., 15 min) and equal amounts of protein were separated on a 12.5% SDS-PAGE, transferred to nitrocellulose, and immunoblotted using an anti-Ras antibody (Y13-259, ATCC) or an anti-RapIA antibody (SC-65, Santa Cruz Biotechnology, Santa Cruz, Calif.). Antibody reactions were visualized using either peroxidase-conjugated goat anti-rat 1 gG (for Y13-259), or peroxidase-conjugated goat anti-rabbit 1 gG (for Rap1A) and an enhanced chemiluminescence detection (ECL, Amersham Corp.), as described previously (41).
A general note: Immunoblotting shows a protein as a band on a membrane.

The subject of another experiment is H-Ras processing. In words: Ras processing assay in H-RasF cells (NIH 3T3 transformed with oncogenic H-Ras-CVLS), immunoblot. Type of experiment: cell-based. The following applies: for IC50: whole cells. The procedure: as §1, §2
The test system of experiment [2] is oncogenic H-Ras activation of MAPK. The experiment is described as follows: Oncogenic H-Ras activation of MAP kinase, immunoblot. Format: cell-based. The settings on record: H-RasF cells. The source says: Equal amounts of protein were separated on a 15% SDS-PAGE, transferred to nitrocellulose, and immunoblotted using an anti-MAP kinase antibody (erk2, monoclonal, UB1, Lake Placid, N.Y.). Antibody reactions were visualized using peroxidase-conjugated donkey anti-mouse IgG (Jackson ImmunoResearch Laboratories Inc., West Grove, Pa.) and an enhanced chemiluminescence detection system (ECL, Amersham Corp.)

The test system of the next experiment is K-Ras4B processing. In words: K-Ras4B processing assay in NIH 3T3 cells overexpressing oncogenic K-Ras4B. Format: cell-based. The settings on record: whole cells. The source says:
H-Ras cells (45) and K-Ras4B Cells (32) were kind gifts from Dr. Channing Der and Dr. Adrienne Cox (University of North Carolina, Chapel Hill). Means of obtaining these cell lines will be easily recognized by the skilled practitioner.

A further experiment deals with Ras nucleotide state. The settings on record: H-RasF cells.

By IC50 is commonly meant the point on the concentration scale where inhibition reaches its midpoint.

T1 sequence (P53609 whole entry): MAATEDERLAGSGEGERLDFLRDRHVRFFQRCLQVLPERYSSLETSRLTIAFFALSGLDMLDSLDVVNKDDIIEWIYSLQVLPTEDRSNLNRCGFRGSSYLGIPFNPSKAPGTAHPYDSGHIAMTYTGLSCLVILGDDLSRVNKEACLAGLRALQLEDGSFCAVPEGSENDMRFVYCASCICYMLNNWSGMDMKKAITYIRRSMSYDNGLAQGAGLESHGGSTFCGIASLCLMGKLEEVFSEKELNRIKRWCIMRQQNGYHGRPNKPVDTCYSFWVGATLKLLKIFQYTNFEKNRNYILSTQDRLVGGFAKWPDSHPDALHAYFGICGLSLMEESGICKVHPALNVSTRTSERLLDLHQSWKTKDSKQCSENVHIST
Method for Raf-1 kinase: Raf-1 kinase was assayed by determining the ability of Raf to transfer phosphate from [γ-^32 P] ATP to a 19-mer peptide containing an autophosphorylation site. Membrane and cytosol fraction isolation and Raf immunoprecipitates were washed three times with cold HEPES buffer and twice with kinase buffer (50 mM Tris, pH 7.5, 150 mM NaCl, 12 mM MnCl2, 1 mM DTT, 0.2% Tween 20. Immune complex kinase assays were performed by incubating immunoprecipitaes from membrane and cytosol fractions in 96 μl of kinase buffer with 20 μCi of [γ-^32 P]ATP (10 mCi/ml, Amersham) and 2 μl of the Raf-1 substrate peptide (1 mg/ml, Promega) for 30 min at 25° C. The sequence of the Raf-1 substrate peptide is [sequence]. The phosphorylation reaction was terminated by spotting 50 μl aliquots of the assay mixture onto Whatman P81 for 40 min in 0.5% orthophosphoric acid and air dried. The amount of ^32 P incorporated was determined by liquid scintillation counting.
Method for Ras nucleotide state: H-RasF cells were seeded and treated as above for Ras/Raf interaction and Ras and Rap1A processing. On day 2, however, cells were labeled overnight with [^32 P] orthophosphate at 100 μCi/mo (Amersham PBS13) in 10 ml DMEM-phosphate supplemented with 10% calf serum, 1 mg/ml BSA and 20 mM HEPES, pH 7.5. On day 3, the medium was removed and cells were washed one time in ice-cold PBS, scraped from the plate with a cell scraper, collected and centrifuged. The cell pellet was resuspended in ice-cold hypotonic buffer listed above and the cytosol and membrane fractions were separated according to the above description for Ra/Raf association. The cytosol and membrane fractions were lysed on ice for 60 min in 50 mM Tris, pH 7.5, 5 mM MgCl2, 1% Triton X-100 (TX-100), 0.5% DOC, 0.05% SDS, 500 mM NaCl, 1 mM EGTA, 10 μg/ml aprotinin, 10 μg/ml soybean trypsin inhibitor, 25 μg/ml leupeptin, 1 mM DTT, 1 mg/ml BSA. Lysates were cleared and equal amounts of protein were immunoprecipitated using anti-Ras antibody (Y13-259) along with 30 μl Protein A-Agarose goat anti-rat IgG complex (Oncogene Science) for 60 min at 4° C. […] Plates were analyzed by autoradiogram.

Turning to `COC(=O)[C@H](CCSC)NC(=O)c1ccc(NC[C@@H](N)CS)cc1-c1ccccc1` [FTI-277, 4-N-[2(R)-Amino-3-mercaptopropyl]amino-2-phenylbenzoyl methionine methyl ester], in the experiment on Raf-1 kinase, the “oncogenic Ras-F induced activation of Raf kinase in the plasma membrane” value is on record as “suppressed this activation”. In experiment [1], the “growth of Raf-transformed NIH 3T3 cells” value was “had no effect”. Besides, the IC50 was determined as 1.6 µM at GGTase I; 50 µM in the experiment with Rap1A processing (Table 5, read-out: In Vivo Processing IC50 Rap1A); 50 µM with Rap1A processing (read-out: Rap1A processing IC50); 0.1 µM with H-Ras processing (Table 5, read-out: In Vivo Processing IC50 H-Ras); 0.1 µM in the experiment with H-Ras processing (read-out: H-Ras processing IC50); 10 µM with K-Ras4B processing (Table 5, read-out: In Vivo Processing IC50 K-Ras). The IC50 with K-Ras4B processing (read-out: K-Ras4B processing IC50) worked out at 10 µM. Besides, the “inhibition of processing of geranylgeranylated Rap1A” value in the experiment on Rap1A processing (concentrations as high as 10 μM) is recorded as “did not inhbit processing”. Besides, the “processing of RasF” value in the experiment with H-Ras processing (5 μM, FIG. 2B) is reported as “completely blocked”. Besides, the “concentration at which Ras processing was blocked” value in the experiment with H-Ras processing (H-RasF cells) is 1 µM. Moreover, the “lowest effective concentration, inhibition of oncogenic Ras activation of MAPK” value in experiment [2] is recorded as 300 nM. Also, the “nucleotide state of non-farnesylated cytosolic Ras” value in the experiment on Ras nucleotide state was “GTP bound”.
